Test results taken from patent US20080171740A1, “Chemical Compounds” (SMITHKLINE BEECHAM CORPORATION, priority 2004, published 2008).
Where two headings read alike, the source gives them in different places.

Tests used:
Type in all cases: cell-based
CXCR4 receptor = target: T1, CXCR4 receptor (Homo sapiens, UniProt P61073); test: Functional FLIPR assay (block of SDF-1 alpha induced [Ca2+]i change); conditions: HEK-293 cells with human CXCR4 BacMam and Gqi5 BacMam; antagonism of SDF-1 alpha; read-out: Functional assay (pIC50) (converted)
T1 construct: expressed in transfected cells; host or cells: HEK-293 cells (stably expressing human macrophage scavenging receptor) transduced with human CXCR4 BacMam and Gqi5 BacMam
T1 sequence (P61073 whole entry): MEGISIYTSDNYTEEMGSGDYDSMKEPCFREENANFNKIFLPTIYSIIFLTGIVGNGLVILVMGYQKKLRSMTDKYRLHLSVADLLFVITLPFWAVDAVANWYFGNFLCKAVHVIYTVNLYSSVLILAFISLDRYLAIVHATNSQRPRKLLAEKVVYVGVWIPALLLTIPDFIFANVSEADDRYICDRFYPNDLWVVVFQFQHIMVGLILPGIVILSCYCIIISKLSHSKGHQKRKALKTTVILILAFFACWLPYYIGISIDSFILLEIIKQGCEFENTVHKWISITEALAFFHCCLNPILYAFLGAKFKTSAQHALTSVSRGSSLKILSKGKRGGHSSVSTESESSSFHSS
Protocol: Human embryonic kidney (HEK-293) cells were maintained and harvested as described above. Cells were plated in 96-well, black clear bottom, poly-lysine coated plates at a concentration of 40,000 cells per well in a final volume of 100 ul containing human CXCR4 BacMam (MOI=25) and Gqi5 BacMam (MOI=12.5). The cells were incubated at 37° C., 5% CO2, 95% humidity for 24 h to allow for protein expression.
After the required incubation time the cells were washed once with 50 ul of fresh serum-free DMEM/F12 media containing probenicid. 50 ul of dye solution was then added to the cells (Calcium Plus Assay Kit Dye; Molecular Devices) was dissolved in 200 ml of the above probenicid/BSA containing media and incubated for 1 h. Cell plates were transferred to a Fluorometric Imaging Plate Reader (FLIPR). Upon addition the effect of the compounds on the change in [Ca^2+]i was examined to determine if the compounds were agonists or antagonists (ability to block SDF-1 alpha activity) at the CXCR4 receptor. IC50 values are determined and pKb values are calculated using the Leff and Dougall equation: KB=IC50/((2+([agonist]/EC50̂b)̂1/b -1) Where IC50 is that defined by the antagonist concentration-response curve [agonist] is the EC80 concentration of agonist used EC50 is that defined by the agonist concentration-response curve b is the slope of the agonist concentration-response curve.

[1] = system: HIV-1 gp160 (HXB2 strain) mediated fusion with HOS (hCXCR4/hCCR5/hCD4/pHIV-LTR-luciferase) cells; test: Cell/cell fusion assay (HEK-293 expressing HIV-1 tat, rev, gp160 with HOS hCXCR4/hCCR5/hCD4/pHIV-LTR-luciferase cells); conditions: Homo sapiens, HEK293; luciferase readout after 24 h; read-out: Fusion assay (pIC50) (converted)
From the text: The complete coding sequences of HIV-1 tat (GenBank Accession No. X07861) and rev (GenBank Accession No. M34378) were cloned into pcDNA3.1 expression vectors containing G418 and hygromycin resistance genes, respectively. The complete coding sequence of the HIV-1 (HXB2 strain) gp160 envelope gene (nucleotide bases 6225-8795 of GenBank Accession No. K03455) was cloned into plasmid pCRII-TOPO. The three HIV genes were additionally inserted into the baculovirus shuttle vector, pFastBacMam1, under the transcriptional control of the CMV promoter. A construction of the pHIV-I LTR containing mutated NFkB sequences linked to the luciferase reporter gene was prepared by digesting pcDNA3.1, containing the G418 resistance gene, with Nru I and Bam HI to remove the CMV promoter. LTR-luc was then cloned into the Nru I/Bam HI sites of the plasmid vector. Plasmid preparations were performed after the plasmids were amplified in Escherichia coli strain DH5-alpha. The fidelity of the inserted sequences was confirmed by double-strand nucleotide sequencing using an ABI Prism Model 377 automated sequencer.
Recombinant BacMam baculoviruses were constructed from pFastBacMam shuttle plasmids by using the bacterial cell-based Bac-to-Bac system. Viruses were propagated in Sf9 (Spodoptera frugiperda) cells cultured in Hink's TNM-FH Insect media supplemented with 10% (v/v) fetal bovine serum and 0.1% (v/v) pluronic F-68 according to established protocols.
Human osteosarcoma (HOS) cells that naturally express human CXCR4 were transfected with human CCR5, human CD4 and the pHIV-LTR-luciferase plasmid using FuGENE 6 transfection reagent. Single cells were isolated and grown under selection condition in order to generate a stable HOS (hCXCR4/hCCR5/hCD4/pHIV-LTR-luciferase) clonal cell line. The cells were maintained in Dulbeccos modified Eagles media supplemented with 10% fetal calf serum (FCS), G418 (400 ug/ml), puromycin (1 ug/ml), mycophenolic acid (40 ug/ml), xanthine (250 ug/ml) and hypoxanthine (13.5 ug/ml) to maintain a selection pressure for cells expressing the LTR-luciferase, hCCR5 and hCD4, respectively. Human embryonic kidney (HEK-293) cells stably transfected to express the human macrophage scavenging receptor (Class A, type 1; GenBank Accession No. D90187), were maintained in DMEM/F-12 media (1:1) supplemented with 10% FCS and 1.5 ug/ml puromycin. The expression of this receptor by the HEK-293 cells enhances their ability to stick to tissue culture treated plasticware.
HEK-293 cells were harvested using enzyme-free cell dissociation buffer. The cells were resuspended in DMEM/F-12 media supplemented with 10% FCS and 1.5 ug/ml and counted. Tranductions were performed by direct addition of BacMam baculovirus containing insect cell media to cells. The cells were simultaneously transduced with BacMam baculovirus expressing HIV-1 tat, HIV-1 rev and HIV-1 gp160 (from the HXB2 HIV strain). Routinely an MOI of 10 of each virus was added to the media containing the cells. 2 mM butyric acid was also added to the cells at this stage to increase protein expression in transduced cells. The cells were subsequently mixed and seeded into a flask at 30 million cells per T225. The cells were incubated at 37° C., 5% CO2, 95% humidity for 24 h to allow for protein expression.
HEK and HOS cells were harvested in DMEM/F-12 media containing 2% FCS and DMEM media containing 2% FCS, respectively, with no selection agents added. Compounds were plated as 1 ul spots in 100% DMSO on a 96-well CulturPlate plates. HOS cells (50 ul) were added first to the wells, followed immediately by the HEK cells (50 ul). The final concentration of each cell type was 20,000 cells per well. Following these additions, the cells were returned to a tissue culture incubator (37° C.; 5% CO2/95% air) for an additional 24 h.
Following the 24 h incubation, total cellular luciferase activity was measured using the LucLite Plus assay kit (Packard, Meridien, Conn.). […]

[2] = system: HIV-1 IIIB strain, T-tropic (CXCR4 utilizing); test: HOS HIV-1 infectivity assay
Protocol: (§1) Compounds were profiled against two HIV-1 viruses, the M-tropic (CCR5 utilizing) Ba-L strain and the T-tropic (CXCR4 utilizing) IIIB strain. Both viruses were propagated in human peripheral blood lymphocytes. Compounds were tested for there ability to block infection of the HOS cell line (expressing hCXCR4/hCCR5/hCD4/pHIV-LTR-luciferase) by either HIV-1 Ba-L or HIV-1 IIIB. Compound cytotoxicity was also examined in the absence of virus addition.
(§2) HOS cells (expressing hCXCR4/hCCR5/hCD4/pHIV-LTR-luciferase) were harvested and diluted in Dulbeccos modified Eagles media supplemented with 2% FCS and non-essential amino acid to a concentration of 60,000 cells/ml. The cells were plated into 96-well plates (100 ul per well) and the plates were placed in a tissue culture incubator (37° C.; 5% CO2/95% air) for a period of 24 h.
(§3) Subsequently, 50 ul of the desired drug solution (4 times the final concentration) was added to each well and the plates were returned to the tissue culture incubator (37° C.; 5% CO2/95% air) for 1 h. Following this incubation 50 ul of diluted virus was added to each well (approximately 2 million RLU per well of virus). The plates were returned to the tissue culture incubator (37° C.; 5% CO2/95% air) and were incubated for a further 96 h.
(§4) Following this incubation the endpoint for the virally infected cultures was quantified following addition of Steady-Glo Luciferase assay system reagent (Promega, Madison, Wis.). Cell viability or non-infected cultures was measured using a CellTiter-Glo luminescent cell viability assay system (Promega, Madison, Wis.). All luminescent readouts are performed on a Topcount luminescence detector (Packard, Meridien, Conn.).

[3] = Compound cytotoxicity in the absence of virus (CellTiter-Glo); conditions: human; non-infected HOS cultures, cell viability; read-out: Cytotox (pIC50) (converted)
Protocol: as §1, §2, §3, §4

[4] = Human immunodeficiency virus 1, IIIB, HOS HIV anti-infectivity assay, strain not named in Table 2, read-out: Activity Level
[5] = Human immunodeficiency virus 1, HOS cells, HIV-1 IIIB, 96 h, luciferase, read-out: HOS (3B)

SMILES	IC50 (CXCR4 receptor) [µM]	IC50 [1] [µM]	IC50 [2, 4] [µM]	IC50 [2, 5] [µM]	IC50 at 96 h [3] [µM]
Cc1cc(Br)cn2cc(CN(CCCCN)C3CCCc4cccnc43)nc12 (stereo not drawn) [Example 19, N-[(6-Bromo-8-methylimidazo[1,2-a]pyridin-2-yl)methyl]-N-(5,6,7,8-tetrahydro-8-quinolinyl)-1,4-butanediamine]	0.0676	0.537	0.1 to 0.5	0.14	> 100
COc1cccc2nc(CN(CCCCN)C3CCCc4cccnc43)cn12 (stereo not drawn) [Example 25, N-{[5-(Methyloxy)imidazo[1,2-a]pyridin-2-yl]methyl}-N-(5,6,7,8-tetrahydro-8-quinolinyl)-1,4-butanediamine]	0.0102	0.123	< 0.1	0.015	> 100
NCCCCN(Cc1cn2ccc(C(F)(F)F)cc2n1)C1CCCc2cccnc21 (stereo not drawn) [Example 6, N-(5,6,7,8-Tetrahydro-8-quinolinyl)-N-{[7-(trifluoromethyl)imidazo[1,2-a]pyridin-2-yl]methyl}-1,4-butanediamine]	2.19	4.47	0.5 to 10	1.4	> 100
Cc1ccn2cc(CN(CCCCN)C3CCCc4cccnc43)nc2c1 (stereo not drawn) [Example 3, N-[(7-Methylimidazo[1,2-a]pyridin-2-yl)methyl]-N-(5,6,7,8-tetrahydro-8-quinolinyl)-1,4-butanediamine]	0.759	0.813	0.1 to 0.5	0.223	> 100
NCCCCN(Cc1cn2c(C(F)(F)F)cccc2n1)C1CCCc2cccnc21 (stereo not drawn) [Example 8, N-(5,6,7,8-Tetrahydro-8-quinolinyl)-N-{[5-(trifluoromethyl)imidazo[1,2-a]pyridin-2-yl]methyl}-1,4-butanediamine]	0.0195	0.174	< 0.1	0.045	> 100
NCCCCN(Cc1cn2cc(Cl)ccc2n1)C1CCCc2cccnc21 (stereo not drawn) [Example 10, N-[(6-Chloroimidazo[1,2-a]pyridin-2-yl)methyl]-N-(5,6,7,8-tetrahydro-8-quinolinyl)-1,4-butanediamine]	0.0295	0.115	< 0.1	0.041	> 100
Cc1cccc2nc(CN(CCCCN)C3CCCc4cccnc43)cn12 (stereo not drawn) [Example 5, N-[(5-Methylimidazo[1,2-a]pyridin-2-yl)methyl]-N-(5,6,7,8-tetrahydro-8-quinolinyl)-1,4-butanediamine]	0.012	0.0398	< 0.1	0.017	> 100
NCCCCN(Cc1cn2cc(F)ccc2n1)C1CCCc2cccnc21 (stereo not drawn) [Example 11, N-[(6-Fluoroimidazo[1,2-a]pyridin-2-yl)methyl]-N-(5,6,7,8-tetrahydro-8-quinolinyl)-1,4-butanediamine]	0.017	0.0631	< 0.1	0.033	> 100
NCCCCN(Cc1cn2cc(C(F)(F)F)ccc2n1)C1CCCc2cccnc21 (stereo not drawn) [Example 7, N-(5,6,7,8-Tetrahydro-8-quinolinyl)-N-{[6-(trifluoromethyl)imidazo[1,2-a]pyridin-2-yl]methyl}-1,4-butanediamine]	0.0631	0.191	0.1 to 0.5	0.161	> 100
N#Cc1ccc2nc(CN(CCCCN)C3CCCc4cccnc43)cn2c1 (stereo not drawn) [Example 9, 2-{[(4-Aminobutyl)(5,6,7,8-tetrahydro-8-quinolinyl)amino]methyl}imidazo [1,2-a]pyridine-6-carbonitrile]	0.112	0.372	0.1 to 0.5	0.112	> 100
Cc1cc(Br)c2nc(CN(CCCCN)C3CCCc4cccnc43)cn2c1 (stereo not drawn) [Example 20, N-[(8-Bromo-6-methylimidazo[1,2-a]pyridin-2-yl)methyl]-N-(5,6,7,8-tetrahydro-8-quinolinyl)-1,4-butanediamine]	0.135	2.29	0.1 to 0.5	0.31	> 100
NCCCCN(Cc1cn2cc(Cl)cc(Cl)c2n1)C1CCCc2cccnc21 (stereo not drawn) [Example 16, N-[(6,8-Dichloroimidazo[1,2-a]pyridin-2-yl)methyl]-N-(5,6,7,8-tetrahydro-8-quinolinyl)-1,4-butanediamine]	0.049	1.29	0.1 to 0.5	0.133	> 100
